This is an account of results in patent publication US4326054A, “Cleomycins and process for producing same” (Zaidan Hojin Biseibutsu Kagaku Kenkyu Kai, priority 1979, dated 1982).

This test concerns Mycobacterium smegmatis ATCC 607. Put plainly: Antimicrobial activity, agar plate-cylinder method, bleomycin A2 as standard (1,000 u/mg). It is filed as cell-based. As to conditions: Table 5; copper-free form; relative to bleomycin A2 = 1,000 u/mg. On the procedure:
Typical examples of the biological activities measured on cleomycins (copper-free form) are illustrated below.
Comparison was made with the relevant antibiotics bleomycins. The relative antimicrobial potency (u/mg) against Mycobacterium smegmatis ATCC 607 was measured by agar plate-cylinder method using bleomycin A2 as a standard (1,000 u/mg).
(Note: The antimicrobial potency was determined by taking bleomycin
A2 as 1,000 μ/mg and using Mycobacterium smegmatis ATCC 607 as a
test bacterium. Herinafter, the same was applied.)
Take `Cc1c(N)nc(C(CC(N)=O)NCC(N)C(N)=O)nc1C(=O)NC(C(=O)NC(C)C(O)C(C)C(=O)NC(C(=O)NCCc1nc(-c2nc(C(=O)NCCN)cs2)cs1)C1(O)CC1)C(OC1OC(CO)C(O)C(O)C1OC1OC(CO)C(O)C(OC(N)=O)C1O)c1cnc[nH]1` (centres unmarked) [Compound No. 3, 2-aminoethylaminocleomycin]: the Antimicrobiral potency was 2,760 u/mg.

As for `Cc1c(N)nc(C(CC(N)=O)NCC(N)C(N)=O)nc1C(=O)NC(C(=O)NC(C)C(O)C(C)C(=O)NC(C(=O)NCCc1nc(-c2nc(C(=O)NCCCN)cs2)cs1)C1(O)CC1)C(OC1OC(CO)C(O)C(O)C1OC1OC(CO)C(O)C(OC(N)=O)C1O)c1cnc[nH]1` (centres unmarked) [compound 4, 3-aminopropylaminocleomycin], the Antimicrobiral potency was 2,150 u/mg.

For the compound `Cc1c(N)nc(C(CC(N)=O)NCC(N)C(N)=O)nc1C(=O)NC(C(=O)NC(C)C(O)C(C)C(=O)NC(C(=O)NCCc1nc(-c2nc(C(=O)NCCCCN)cs2)cs1)C1(O)CC1)C(OC1OC(CO)C(O)C(O)C1OC1OC(CO)C(O)C(OC(N)=O)C1O)c1cnc[nH]1` (centres unmarked) [compound 5, 4-aminobutylaminocleomycin], the Antimicrobiral potency is recorded as 1,935 u/mg.

As to `Cc1c(N)nc(C(CC(N)=O)NCC(N)C(N)=O)nc1C(=O)NC(C(=O)NC(C)C(O)C(C)C(=O)NC(C(=O)NCCc1nc(-c2nc(C(=O)NCCCNCCCCN)cs2)cs1)C1(O)CC1)C(OC1OC(CO)C(O)C(O)C1OC1OC(CO)C(O)C(OC(N)=O)C1O)c1cnc[nH]1` (centres unmarked) [compound 6, 3-(4-aminobutylamino)propylaminocleomycin], the Antimicrobiral potency is 3,575 u/mg.

Consider `Cc1c(N)nc(C(CC(N)=O)NCC(N)C(N)=O)nc1C(=O)NC(C(=O)NC(C)C(O)C(C)C(=O)NC(C(=O)NCCc1nc(-c2nc(C(=O)NCCNCC(C)O)cs2)cs1)C1(O)CC1)C(OC1OC(CO)C(O)C(O)C1OC1OC(CO)C(O)C(OC(N)=O)C1O)c1cnc[nH]1` (centres unmarked) [compound 12, 2-(2-hydroxypropylamino)ethylaminocleomycin], for which the Antimicrobiral potency is reported as 2,280 u/mg.

Take `Cc1c(N)nc(C(CC(N)=O)NCC(N)C(N)=O)nc1C(=O)NC(C(=O)NC(C)C(O)C(C)C(=O)NC(C(=O)NCCc1nc(-c2nc(C(=O)NCCCN3CCNCC3)cs2)cs1)C1(O)CC1)C(OC1OC(CO)C(O)C(O)C1OC1OC(CO)C(O)C(OC(N)=O)C1O)c1cnc[nH]1` (centres unmarked) [compound 13, 3-(1-piperazinyl)propylaminocleomycin]: the Antimicrobiral potency is on record as 980 u/mg.

Take `Cc1c(N)nc(C(CC(N)=O)NCC(N)C(N)=O)nc1C(=O)NC(C(=O)NC(C)C(O)C(C)C(=O)NC(C(=O)NCCc1nc(-c2nc(C(=O)NCCCNCCCNC(C)c3ccccc3)cs2)cs1)C1(O)CC1)C(OC1OC(CO)C(O)C(O)C1OC1OC(CO)C(O)C(OC(N)=O)C1O)c1cnc[nH]1` (centres unmarked) [compound 14, 3-[3-(1-phenylethylamino)propylamino]propylaminocleomycin]: the Antimicrobiral potency is 11,420 u/mg.

Regarding `Cc1c(N)nc(C(CC(N)=O)NCC(N)C(N)=O)nc1C(=O)NC(C(=O)NC(C)C(O)C(C)C(=O)NC(C(=O)NCCc1nc(-c2nc(C(=O)NCCC[N+](C)(C)C)cs2)cs1)C1(O)CC1)C(OC1OC(CO)C(O)C(O)C1OC1OC(CO)C(O)C(OC(N)=O)C1O)c1cnc[nH]1` (centres unmarked) [compound 18, 3-(N,N,N-trimethylamino)propylaminocleomycin], the Antimicrobiral potency is given as 878 u/mg.

As to `Cc1c(N)nc(C(CC(N)=O)NCC(N)C(N)=O)nc1C(=O)NC(C(=O)NC(C)C(O)C(C)C(=O)NC(C(=O)NCCc1nc(-c2nc(C(=O)NCCCNCCCN(C)C)cs2)cs1)C1(O)CC1)C(OC1OC(CO)C(O)C(O)C1OC1OC(CO)C(O)C(OC(N)=O)C1O)c1cnc[nH]1` (centres unmarked) [compound 19, 3-[3-(N,N-dimethylamino)propyl]propylaminocleomycin], the Antimicrobiral potency is 2,004 u/mg.

`Cc1c(N)nc(C(CC(N)=O)NCC(N)C(N)=O)nc1C(=O)NC(C(=O)NC(C)C(O)C(C)C(=O)NC(C(=O)NCCc1nc(-c2nc(C(=O)NCCCNC(C)CCN)cs2)cs1)C1(O)CC1)C(OC1OC(CO)C(O)C(O)C1OC1OC(CO)C(O)C(OC(N)=O)C1O)c1cnc[nH]1` (centres unmarked) [compound 21, 3-(3-amino-1-methylpropylamino)propylaminocleomycin]: the Antimicrobiral potency is listed as 2,620 u/mg.

For `Cc1c(N)nc(C(CC(N)=O)NCC(N)C(N)=O)nc1C(=O)NC(C(=O)NC(C)C(O)C(C)C(=O)NC(C(=O)NCCc1nc(-c2nc(C(=O)NCCCN3CCOCC3)cs2)cs1)C1(O)CC1)C(OC1OC(CO)C(O)C(O)C1OC1OC(CO)C(O)C(OC(N)=O)C1O)c1cnc[nH]1` (centres unmarked) [compound 24, 3-morpholinopropylaminocleomycin], the Antimicrobiral potency is listed as 800 u/mg.

Consider `Cc1c(N)nc(C(CC(N)=O)NCC(N)C(N)=O)nc1C(=O)NC(C(=O)NC(C)C(O)C(C)C(=O)NC(C(=O)NCCc1nc(-c2nc(C(=O)NCCCNCCCN3CCCC3)cs2)cs1)C1(O)CC1)C(OC1OC(CO)C(O)C(O)C1OC1OC(CO)C(O)C(OC(N)=O)C1O)c1cnc[nH]1` (centres unmarked) [compound 26, 3-[3-(1-pyrrolidinyl)propylamino]propylaminocleomycin], for which the Antimicrobiral potency was 3,590 u/mg.

Take `Cc1c(N)nc(C(CC(N)=O)NCC(N)C(N)=O)nc1C(=O)NC(C(=O)NC(C)C(O)C(C)C(=O)NC(C(=O)NCCc1nc(-c2nc(C(=O)NCCCNCCCN3CCOCC3)cs2)cs1)C1(O)CC1)C(OC1OC(CO)C(O)C(O)C1OC1OC(CO)C(O)C(OC(N)=O)C1O)c1cnc[nH]1` (centres unmarked) [compound 28, 3-(3-morpholinopropylamino)propylaminocleomycin]: the Antimicrobiral potency was 1,715 u/mg.

Consider `COCCCNCCCNC(=O)c1csc(-c2csc(CCNC(=O)C(NC(=O)C(C)C(O)C(C)NC(=O)C(NC(=O)c3nc(C(CC(N)=O)NCC(N)C(N)=O)nc(N)c3C)C(OC3OC(CO)C(O)C(O)C3OC3OC(CO)C(O)C(OC(N)=O)C3O)c3cnc[nH]3)C3(O)CC3)n2)n1` (centres unmarked) [compound 31, 3-(3-methoxypropylamino)propylaminocleomycin], for which the Antimicrobiral potency is on record as 1,869 u/mg.

On to `Cc1c(N)nc(C(CC(N)=O)NCC(N)C(N)=O)nc1C(=O)NC(C(=O)NC(C)C(O)C(C)C(=O)NC(C(=O)NCCc1nc(-c2nc(C(=O)NCCCNCc3ccccc3)cs2)cs1)C1(O)CC1)C(OC1OC(CO)C(O)C(O)C1OC1OC(CO)C(O)C(OC(N)=O)C1O)c1cnc[nH]1` (centres unmarked) [compound 32, 3-benzylaminopropylaminocleomycin], for which the Antimicrobiral potency stood at 6.977 u/mg.

With `Cc1c(N)nc(C(CC(N)=O)NCC(N)C(N)=O)nc1C(=O)NC(C(=O)NC(C)C(O)C(C)C(=O)NC(C(=O)NCCc1nc(-c2nc(C(=O)NCCCNCCCNC3CCCCC3)cs2)cs1)C1(O)CC1)C(OC1OC(CO)C(O)C(O)C1OC1OC(CO)C(O)C(OC(N)=O)C1O)c1cnc[nH]1` (centres unmarked) [compound 37, 3-(3-cyclohexylaminopropylamino)propylaminocleomycin], the Antimicrobiral potency is 14,784 u/mg.

With `Cc1c(N)nc(C(CC(N)=O)NCC(N)C(N)=O)nc1C(=O)NC(C(=O)NC(C)C(O)C(C)C(=O)NC(C(=O)NCCc1nc(-c2nc(C(=O)NCCc3cnc[nH]3)cs2)cs1)C1(O)CC1)C(OC1OC(CO)C(O)C(O)C1OC1OC(CO)C(O)C(OC(N)=O)C1O)c1cnc[nH]1` (centres unmarked) [compound 40, 2-(4-imidazolyl)ethylaminocleomycin], the Antimicrobiral potency is listed as 1,147 u/mg.

Regarding `Cc1c(N)nc(C(CC(N)=O)NCC(N)C(N)=O)nc1C(=O)NC(C(=O)NC(C)C(O)C(C)C(=O)NC(C(=O)NCCc1nc(-c2nc(C(=O)NCCCNCCc3ccccn3)cs2)cs1)C1(O)CC1)C(OC1OC(CO)C(O)C(O)C1OC1OC(CO)C(O)C(OC(N)=O)C1O)c1cnc[nH]1` (centres unmarked) [compound 41, 3-[2-(2-pyridyl)ethylamino]propylaminocleomycin], the Antimicrobiral potency was 6,068 u/mg.

For `Cc1c(N)nc(C(CC(N)=O)NCC(N)C(N)=O)nc1C(=O)NC(C(=O)NC(C)C(O)C(C)C(=O)NC(C(=O)NCCc1nc(-c2nc(C(=O)NCCCNCCCCCCO)cs2)cs1)C1(O)CC1)C(OC1OC(CO)C(O)C(O)C1OC1OC(CO)C(O)C(OC(N)=O)C1O)c1cnc[nH]1` (centres unmarked) [compound 42, 3-(6-hydroxyhexylamino)propylaminocleomycin], the Antimicrobiral potency is listed as 4,806 u/mg.

In the case of `Cc1c(N)nc(C(CC(N)=O)NCC(N)C(N)=O)nc1C(=O)NC(C(=O)NC(C)C(O)C(C)C(=O)NC(C(=O)NCCc1nc(-c2nc(C(=O)NCCCNCCCN)cs2)cs1)C1(O)CC1)C(OC1OC(CO)C(O)C(O)C1OC1OC(CO)C(O)C(OC(N)=O)C1O)c1cnc[nH]1` (centres unmarked) [compound 43, 3-(3-aminopropylamino)propylaminocleomycin], the Antimicrobiral potency was 2,790 u/mg.

Regarding `Cc1c(N)nc(C(CC(N)=O)NCC(N)C(N)=O)nc1C(=O)NC(C(=O)NC(C)C(O)C(C)C(=O)NC(C(=O)NCCc1nc(-c2nc(C(=O)NCCCNCCCCCCN)cs2)cs1)C1(O)CC1)C(OC1OC(CO)C(O)C(O)C1OC1OC(CO)C(O)C(OC(N)=O)C1O)c1cnc[nH]1` (centres unmarked) [compound 44, 3-(6-aminohexylamino)propylaminocleomycin], the Antimicrobiral potency is reported as 3,520 u/mg.

For the compound `Cc1c(N)nc(C(CC(N)=O)NCC(N)C(N)=O)nc1C(=O)NC(C(=O)NC(C)C(O)C(C)C(=O)NC(C(=O)NCCc1nc(-c2nc(C(=O)NCCCNCCCNCc3ccccc3)cs2)cs1)C1(O)CC1)C(OC1OC(CO)C(O)C(O)C1OC1OC(CO)C(O)C(OC(N)=O)C1O)c1cnc[nH]1` (centres unmarked) [compound 45, 3-(3-benzylaminopropylamino)propylaminocleomycin], the Antimicrobiral potency is 8,400 u/mg.

For the compound `Cc1c(N)nc(C(CC(N)=O)NCC(N)C(N)=O)nc1C(=O)NC(C(=O)NC(C)C(O)C(C)C(=O)NC(C(=O)NCCc1nc(-c2nc(C(=O)NCCCN(C)CCCNCc3ccccc3)cs2)cs1)C1(O)CC1)C(OC1OC(CO)C(O)C(O)C1OC1OC(CO)C(O)C(OC(N)=O)C1O)c1cnc[nH]1` (centres unmarked) [compound 46, 3-[N-methyl-N-(3-benzylaminopropyl)]aminopropylcleomycin], the Antimicrobiral potency is 7,660 u/mg.
